Source: patent US20240124504A1, “AROMATIC HETEROCYCLIC COMPOUND, AND PHARMACEUTICAL COMPOSITION AND APPLICATION THEREOF” (GT APEIRON THERAPEUTICS LIMITED, priority 2020, published 2024)

Columns and labels:
CDK2/cyclinE1 complex = CDK2/cyclinE1 complex (Homo sapiens, UniProt P24941); experiment: In-vitro enzymatic inhibitory activity testing, CDK2 inhibition assay (Caliper EZ Reader II); assay type: biochemical; conditions: CDK2/cyclinE1 0.5 nM, 180 min at 27° C.
Method in brief: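 CDK2/cyclinE1 (0.5 nM) phosphorylated 5-FAM-CDK7tide (2 μM) in MES buffer pH 6.5 with MgCl2, Tween 20 and BSA. Substrate and product were separated electrophoretically on a Caliper EZ Reader II. IC50 values came from nonlinear dose-response fits.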

[1] = target: T1, CDK12 (aa686-1082)/cyclinK complex (Homo sapiens, UniProt Q9NYV4); experiment: In-vitro enzymatic inhibitory activity testing, CDK12 inhibition assay (Caliper EZ Reader II); assay type: biochemical; conditions: CDK12/cyclinK 50 nM, 180 min at 27° C.; read-out: CDK12 IC50
T1 construct: A CDK12 (aa686-1082)/cyclinK complex (50 nM)
Method in brief: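 Caliper EZ Reader II mobility-shift separation of 5-FAM-CDK9tide substrate (2 μM) from phosphoproduct, using 50 nM CDK12 (aa686-1082)/cyclinK in 80 mM MES pH 6.5, 10 mM MgCl2, 0.01% Tween 20, 50 ug/mL BSA. Compound pre-incubated 10 min with enzyme, then substrate/ATP added for 180 min at 27° C; EDTA stop. IC50 by nonlinear dose-response regression.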

[2] = tested on: human breast cancer cells HCC70; experiment: Cell biological activity detection (CyQuant, 72 hours), HCC70; assay type: cell-based; conditions: incubation for 72 hours
Method in brief: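 A2780 and HCC70 cells seeded at 2000/well in RPMI 1640 + 10% FBS, treated next day with 9-point compound dilutions (top 10 μM, 1:4; 0.2% DMSO) for 72 h at 37 °C. Cell number read by CyQuant Direct nucleic acid stain (ex 488 nm); IC50 from dose–response fit.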

T1 sequence (Q9NYV4 686-1082, species assumed): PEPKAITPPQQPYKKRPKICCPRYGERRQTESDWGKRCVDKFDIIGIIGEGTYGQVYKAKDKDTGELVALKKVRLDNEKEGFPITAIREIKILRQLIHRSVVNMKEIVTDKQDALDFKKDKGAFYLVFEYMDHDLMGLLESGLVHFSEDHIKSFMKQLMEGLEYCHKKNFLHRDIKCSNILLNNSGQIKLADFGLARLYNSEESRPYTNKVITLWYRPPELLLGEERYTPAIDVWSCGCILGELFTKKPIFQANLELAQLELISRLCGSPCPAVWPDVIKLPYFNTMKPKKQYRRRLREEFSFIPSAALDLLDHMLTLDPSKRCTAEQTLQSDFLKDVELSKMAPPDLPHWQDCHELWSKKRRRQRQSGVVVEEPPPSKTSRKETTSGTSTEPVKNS
T1 sequence (O75909 whole entry partner, species assumed, the tested form may be a part): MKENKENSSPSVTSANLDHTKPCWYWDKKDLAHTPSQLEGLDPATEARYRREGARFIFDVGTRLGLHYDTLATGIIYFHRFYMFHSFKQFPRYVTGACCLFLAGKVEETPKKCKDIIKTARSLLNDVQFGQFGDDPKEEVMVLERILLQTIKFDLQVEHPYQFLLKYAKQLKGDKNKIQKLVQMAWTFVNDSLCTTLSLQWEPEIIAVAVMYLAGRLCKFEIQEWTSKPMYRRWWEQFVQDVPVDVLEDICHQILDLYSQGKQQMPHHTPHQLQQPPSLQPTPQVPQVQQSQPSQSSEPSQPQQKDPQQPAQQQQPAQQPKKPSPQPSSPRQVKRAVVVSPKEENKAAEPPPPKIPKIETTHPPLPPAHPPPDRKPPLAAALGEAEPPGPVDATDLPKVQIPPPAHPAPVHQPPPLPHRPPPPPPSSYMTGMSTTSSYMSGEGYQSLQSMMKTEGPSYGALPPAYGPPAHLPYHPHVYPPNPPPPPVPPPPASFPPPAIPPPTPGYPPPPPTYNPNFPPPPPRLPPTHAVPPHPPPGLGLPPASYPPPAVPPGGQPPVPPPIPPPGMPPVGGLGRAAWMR

SMILES	IC50 (CDK2/cyclinE1 complex)	IC50 [1]	IC50 ([2]; Homo sapiens, HCC70, 72 h)	IC50 [2]
CP(C)(=O)c1cccc2c(-c3nc(NC[C@H]4C[C@](C)(O)C4)ncc3C(F)(F)F)c[nH]c12 [Compound 127, (3-(2-(((trans-3-hydroxy-3-methylcyclobutyl)methyl)amino)-5-(trifluoromethyl)pyrimidin-4-yl)-1H-indole-7-yl)dimethylphosphine oxide]	0.2 to 5 µM	> 50 µM	< 20 nM	–
CP(C)(=O)c1cccc2c(-c3nc(NC4(CO)CCC4)ncc3C(F)(F)F)c[nH]c12 [Compound 168, (3-(2-((1-(hydroxymethyl)cyclobutyl)amino)-5-(trifluoromethyl)pyrimidin-4-yl)-1H-indole-7-yl)dimethylphosphine oxide]	5 to 50 µM	> 50 µM	20 to 200 nM	–
CC(O)[C@H](C)Nc1ncc(C(F)(F)F)c(-c2c[nH]c3c(P(C)(C)=O)cccc23)n1 (single isomer, unassigned) [Compound 129]	5 to 50 µM	> 50 µM	20 to 200 nM	–
CP(C)(=O)c1cccc2c(-c3nc(N[C@H]4CC[C@H](O)C4)ncc3C(F)(F)F)c[nH]c12 [Compound 83]	0.2 to 5 µM	5 to 50 µM	< 20 nM	–
CC[C@@H](CO)Nc1ncc(C(F)(F)F)c(-c2c[nH]c3c(P(C)(C)=O)cccc23)n1 [Compound 88, (S)-(3-(2-((1-hydroxybutan-2-yl)amino)-5-(trifluoromethyl)pyrimidin-4-yl)-1H-indole-7-yl)dimethylphosphine oxide]	0.2 to 5 µM	> 50 µM	20 to 200 nM	–
CP(C)(=O)c1cccc2c(-c3nc(NC4(CO)CC4)ncc3C(F)(F)F)c[nH]c12 [Compound 94, (3-(2-((1-(hydroxymethyl)cyclopropyl)amino)-5-(trifluoromethyl)pyrimidin-4-yl)-1H-indole-7-yl)dimethylphosphine oxide]	5 to 50 µM	> 50 µM	20 to 200 nM	–
CC(O)[C@H](C)Nc1ncc(C(F)(F)F)c(-c2c[nH]c3c(P(C)(C)=O)cccc23)n1 (single isomer, unassigned) [Compound 130]	5 to 50 µM	> 50 µM	–	20 to 200 nM
C[C@@H](CO)Nc1ncc(C(F)(F)F)c(-c2c[nH]c3c(P(C)(C)=O)cccc23)n1 [Compound 82, (S)-(3-(2-((1-hydroxypropyl-2-yl)amino)-5-(trifluoromethyl)pyrimidin-4-yl)-1H-indole-7-yl)dimethylphosphine oxide]	0.2 to 5 µM	5 to 50 µM	< 20 nM	–
CP(C)(=O)c1cccc2c(-c3nc(NC4(CO)CC(F)C4)ncc3C(F)(F)F)c[nH]c12 (stereo not drawn) [Compound 105, (3-(2-((3-fluoro-1-(hydroxymethyl)cyclobutyl)amino)-5-(trifluoromethyl)pyrimidin-4-yl)-1H-indole-7-yl)dimethylphosphine oxide]	5 to 50 µM	> 50 µM	20 to 200 nM	–
CP(C)(=O)c1cccc2c(-c3nc(NC45CC(O)(C4)C5)ncc3C(F)(F)F)c[nH]c12 [Compound 174, (3-(2-((3-hydroxybicyclo[1.1.1]pentan-1-yl)amino)-5-(trifluoromethyl)pyrimidin-4-yl)-1H-indole-7-yl)dimethylphosphine oxide]	0.2 to 5 µM	0.2 to 5 µM	< 20 nM	–
CP(C)(=O)c1cccc2c(-c3nc(NC4(CO)CCOC4)ncc3C(F)(F)F)c[nH]c12 (single isomer, unassigned) [Compound 118]	5 to 50 µM	> 50 µM	< 20 nM	–
CP(C)(=O)c1cccc2c(-c3nc(NC4(CO)CCOC4)ncc3C(F)(F)F)c[nH]c12 (single isomer, unassigned) [Compound 119]	5 to 50 µM	> 50 µM	–	20 to 200 nM
CP(C)(=O)c1cccc2c(-c3nc(NC[C@H](F)CO)ncc3C(F)(F)F)c[nH]c12 [Compound 86, (S)-(3-(2-((2-fluoro-3-hydroxypropyl)amino)-5-(trifluoromethyl)pyrimidin-4-yl)-1H-indole-7-yl)dimethylphosphine oxide]	0.2 to 5 µM	> 50 µM	20 to 200 nM	–
